One experiment concerns HEL. As to the kind of experiment: Cell growth assay, HEL. Type of experiment: cell-based. Particulars: Homo sapiens, 240 h, CA, after 10 days, read-out: Mean GI50 (nM), HEL. The protocol:
Cell Culture. All media was supplemented with 100 U/mL penicillin and 100 μg/mL streptomycin. Human cancer cell lines were grown in the following media: MV4; 11, RS4; 11, K562, HEL, MOLM-14, MEG-01 in RPMI-1640, 10% FBS; SET-2 in RPMI-1640, 20% FBS; UKE-1 in RPMI-1640, 10% FBS, 10% horse serum and 1 μM hydrocortisone; SKNO-1 and TF-1 in RPMI-1640, 10% FBS, and 10 or 2 ng/mL GM-CSF, respectively; HaCaT in DMEM, 10% FBS; and HCT116 in McCoy's 5 A, 10% FBS (proliferation assay) or DMEM, 10% FBS (gene expression study). HepG2, MV4;11, RS4;11, MEG-01, TF-1, HCT116 and K562 were from ATCC. SKNO-1 was from DSMZ. HEL, UKE-1, and SET-2 were provided by Ross L. Levine and HaCaT, MV4;11-mCLP, and MOLM-14 by Van Wilson, Andrew L. Kung, and Scott A. Armstrong, respectively. MOLM-14 cells were authenticated by STR profiling and flow cytometry and all cell lines were routinely tested and found to be negative for mycoplasma.

Experiment [1] has as its system Smad2 T220 and Smad3 T179 phosphorylation. As to the kind of experiment: TGF-β-stimulated Smad2 T220 and Smad3 T179 phosphorylation immunoblot. Type of experiment: cell-based, human. Particulars: HaCaT cells. The protocol: Kinase Assays. Data was quantified with ImageJ and plotted and fitted with GraphPad Prism 6.0. For STAT1 transactivation domain (TAD), 750 ng of GST-STAT1 TAD (residues 639-750) was incubated with ˜50 ng recombinant CDK8 module at 30° C. for 8 min in kinase buffer (25 mM Tris pH 8, 2 mM DTT, 100 μM cold ATP, 100 mM KCl, 10 mM MgCl2 and 2.5 μCi [γ-^32P] ATP (Perkin Elmer) per reaction). […] 12% SDS-PAGE gels were subsequently silver stained, exposed for 18 h on a Phosphor Screen and imaged (Typhoon 9400, GE Life Sciences). For pol II CTD, 400 ng of GST-CTD (murine sequence) was incubated with ˜40 ng recombinant CDK8 module, 25 ng TFIIH, or 40 ng P-TEFb at 30° C. for 60 min in kinase buffer. Kinase amounts were chosen to give similar total pol II CTD signal. 9% SDS-PAGE gels were silver stained and exposed as above. In vitro FLAG-CDK8 kinase assays used ˜40 ng kinase and 500 ng GST-CTD. For STAT1 or Smad2/3, cells were treated with compound for 1 h followed by IFN-γ or TGF-β1 for 1 h, then washed twice with cold PBS, and lysed (RIPA buffer with inhibitors R0278, P8340, P0044, P5762 Sigma-Aldrich). Standard immunoblotting was then performed with one immunoblot shown. All experiments were performed twice.

What is called GI50 is the concentration at which growth is held to half of that of the control.

`CN(C)[C@H]1C[C@@]23CC[C@@]4(O2)C(=CC[C@@]2(C)[C@@H](c5ccc6ccncc6c5)CC[C@H]24)C=C3[C@@H](O)[C@@H]1O` [CA, cortistatin A]: in the experiment with HEL, the GI50 was above 1000 nM. Further, the “inhibition of Smad2 T220 and Smad3 T179 phosphorylation” value in experiment [1] was “dose-dependently inhibited”.

The values above are taken from patent US10273240B2, “Cortistatin analogues, syntheses, and uses thereof” (President and Fellows of Harvard College, priority 2015, dated 2019).
